Test results: article PMC12586182 (Frontiers in Oncology, 2025)

Assays:
Assay in all cases: Kinase panel profiling at 1 µmol/L (mobility shift assay, Carna)
CK2α1/β = molecular target: T1, CK2α1/β (Homo sapiens, UniProt P68400); type: biochemical; conditions: 1 µmol/L of BTK inhibitor
T1 construct: purchased Carna Biosciences

Haspin = molecular target: T2, Haspin (Homo sapiens, UniProt Q8TF76); type: biochemical; conditions: 1 µmol/L of BTK inhibitor
T2 construct: purchased Carna Biosciences
T2 sequence (Q8TF76 1-798): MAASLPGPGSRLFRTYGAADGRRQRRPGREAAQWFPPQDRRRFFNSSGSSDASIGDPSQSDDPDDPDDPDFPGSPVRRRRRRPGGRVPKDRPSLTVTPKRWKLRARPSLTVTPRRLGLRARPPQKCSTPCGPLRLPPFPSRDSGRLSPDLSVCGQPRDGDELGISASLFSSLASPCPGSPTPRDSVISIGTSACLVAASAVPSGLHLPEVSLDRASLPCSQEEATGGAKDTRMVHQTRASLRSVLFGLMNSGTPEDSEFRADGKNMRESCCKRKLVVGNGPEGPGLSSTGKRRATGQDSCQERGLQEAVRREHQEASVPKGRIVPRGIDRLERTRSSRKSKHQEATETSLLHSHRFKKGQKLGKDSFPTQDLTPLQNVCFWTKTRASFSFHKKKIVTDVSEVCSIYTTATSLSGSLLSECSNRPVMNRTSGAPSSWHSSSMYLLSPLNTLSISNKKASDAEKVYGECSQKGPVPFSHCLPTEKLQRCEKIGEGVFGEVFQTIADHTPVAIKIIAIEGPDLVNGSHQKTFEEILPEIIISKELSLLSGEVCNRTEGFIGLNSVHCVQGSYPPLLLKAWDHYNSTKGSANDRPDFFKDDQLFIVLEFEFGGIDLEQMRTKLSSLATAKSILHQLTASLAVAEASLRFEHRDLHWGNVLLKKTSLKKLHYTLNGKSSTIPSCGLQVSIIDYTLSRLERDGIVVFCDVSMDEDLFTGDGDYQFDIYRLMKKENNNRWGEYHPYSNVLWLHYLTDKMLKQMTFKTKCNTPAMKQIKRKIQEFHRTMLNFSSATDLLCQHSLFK

MARK2 = molecular target: T3, MARK2 (Homo sapiens, UniProt Q7KZI7); type: biochemical; conditions: 1 µmol/L of BTK inhibitor
T3 construct: purchased Carna Biosciences

HIPK1 = molecular target: T4, HIPK1 (Homo sapiens, UniProt Q86Z02); type: biochemical; conditions: 1 µmol/L of BTK inhibitor
T4 construct: purchased Carna Biosciences

GSK3β = molecular target: T5, GSK3β (Homo sapiens, UniProt P49841); type: biochemical; conditions: 1 µmol/L of BTK inhibitor
T5 construct: purchased Carna Biosciences

CDK5/p25 = molecular target: T6, CDK5/p25 (Homo sapiens, UniProt Q00535); type: biochemical; conditions: 1 µmol/L of BTK inhibitor
T6 construct: purchased Carna Biosciences

SPHK1 = molecular target: T7, SPHK1 (Homo sapiens, UniProt Q9NYA1); type: biochemical; conditions: 1 µmol/L of BTK inhibitor
T7 construct: purchased Carna Biosciences

PKN1 = molecular target: T8, PKN1 (Homo sapiens, UniProt Q16512); type: biochemical; conditions: 1 µmol/L of BTK inhibitor
T8 construct: purchased Carna Biosciences

CK1γ3 = molecular target: T9, CK1γ3 (Homo sapiens, UniProt Q9Y6M4); type: biochemical; conditions: 1 µmol/L of BTK inhibitor
T9 construct: purchased Carna Biosciences

AKT2 = molecular target: T10, AKT2 (Homo sapiens, UniProt P31751); type: biochemical; conditions: 1 µmol/L of BTK inhibitor
T10 construct: purchased Carna Biosciences

MAPKAPK3 = molecular target: T11, MAPKAPK3 (Homo sapiens, UniProt Q16644); type: biochemical; conditions: 1 µmol/L of BTK inhibitor
T11 construct: purchased Carna Biosciences

TXK = molecular target: T12, TXK (Homo sapiens, UniProt P42681); type: biochemical; conditions: 1 µmol/L of BTK inhibitor
T12 construct: purchased Carna Biosciences
T12 sequence (P42681 1-527): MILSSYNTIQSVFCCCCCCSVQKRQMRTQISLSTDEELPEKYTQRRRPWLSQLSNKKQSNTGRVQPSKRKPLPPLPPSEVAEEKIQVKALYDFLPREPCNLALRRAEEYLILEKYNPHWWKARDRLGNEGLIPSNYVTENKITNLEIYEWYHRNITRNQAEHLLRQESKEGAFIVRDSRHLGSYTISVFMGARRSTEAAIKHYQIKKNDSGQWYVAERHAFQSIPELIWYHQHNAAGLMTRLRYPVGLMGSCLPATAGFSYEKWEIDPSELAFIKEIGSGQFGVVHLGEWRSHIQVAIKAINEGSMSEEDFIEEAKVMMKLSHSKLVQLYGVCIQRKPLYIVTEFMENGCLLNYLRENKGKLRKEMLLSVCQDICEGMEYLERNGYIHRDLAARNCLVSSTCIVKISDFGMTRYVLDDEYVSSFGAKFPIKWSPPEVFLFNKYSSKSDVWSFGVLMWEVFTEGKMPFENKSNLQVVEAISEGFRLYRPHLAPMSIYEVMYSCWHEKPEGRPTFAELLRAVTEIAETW

SGK3 = molecular target: T13, SGK3 (Homo sapiens, UniProt Q96BR1); type: biochemical; conditions: 1 µmol/L of BTK inhibitor
T13 construct: purchased Carna Biosciences
T13 sequence (Q96BR1 1-496): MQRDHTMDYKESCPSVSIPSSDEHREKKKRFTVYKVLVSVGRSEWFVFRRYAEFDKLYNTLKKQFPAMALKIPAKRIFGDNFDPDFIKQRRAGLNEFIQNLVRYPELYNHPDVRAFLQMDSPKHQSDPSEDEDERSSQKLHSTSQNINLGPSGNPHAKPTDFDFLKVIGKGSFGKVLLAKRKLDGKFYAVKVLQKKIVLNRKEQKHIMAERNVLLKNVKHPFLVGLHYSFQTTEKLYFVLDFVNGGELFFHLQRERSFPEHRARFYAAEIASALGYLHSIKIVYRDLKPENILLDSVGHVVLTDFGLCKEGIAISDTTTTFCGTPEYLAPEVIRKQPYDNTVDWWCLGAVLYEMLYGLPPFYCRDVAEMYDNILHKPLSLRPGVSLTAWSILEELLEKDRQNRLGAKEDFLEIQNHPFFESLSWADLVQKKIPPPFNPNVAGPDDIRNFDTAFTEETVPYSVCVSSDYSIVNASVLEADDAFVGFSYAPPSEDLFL

CK1δ = molecular target: T14, CK1δ (Homo sapiens, UniProt P48730); type: biochemical; conditions: 1 µmol/L of BTK inhibitor
T14 construct: purchased Carna Biosciences

JNK1 = molecular target: T15, JNK1 (Homo sapiens, UniProt P45983); type: biochemical; conditions: 1 µmol/L of BTK inhibitor
T15 construct: purchased Carna Biosciences

CLK3 = molecular target: T16, CLK3 (Homo sapiens, UniProt P49761); type: biochemical; conditions: 1 µmol/L of BTK inhibitor
T16 construct: purchased Carna Biosciences

CSK = CSK (Homo sapiens, UniProt P41240); conditions: for Percentage inhibition of kinase enzyme activity: CSK, 1 µmol/L of BTK inhibitor
WNK2 = molecular target: T17, WNK2 (Homo sapiens, UniProt Q9Y3S1); type: biochemical; conditions: 1 µmol/L of BTK inhibitor
T17 construct: purchased Carna Biosciences

T11 sequence (Q16644 whole entry): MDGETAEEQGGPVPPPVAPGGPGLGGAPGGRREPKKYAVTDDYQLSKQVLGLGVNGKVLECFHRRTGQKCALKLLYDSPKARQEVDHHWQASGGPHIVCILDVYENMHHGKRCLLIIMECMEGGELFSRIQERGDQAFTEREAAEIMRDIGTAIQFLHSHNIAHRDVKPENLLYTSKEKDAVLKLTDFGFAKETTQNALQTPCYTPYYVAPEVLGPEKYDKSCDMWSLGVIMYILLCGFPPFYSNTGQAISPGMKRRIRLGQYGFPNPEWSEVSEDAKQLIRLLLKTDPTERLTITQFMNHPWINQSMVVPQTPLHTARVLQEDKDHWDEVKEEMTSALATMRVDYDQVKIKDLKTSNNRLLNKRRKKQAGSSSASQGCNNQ
T15 sequence (P45983 whole entry): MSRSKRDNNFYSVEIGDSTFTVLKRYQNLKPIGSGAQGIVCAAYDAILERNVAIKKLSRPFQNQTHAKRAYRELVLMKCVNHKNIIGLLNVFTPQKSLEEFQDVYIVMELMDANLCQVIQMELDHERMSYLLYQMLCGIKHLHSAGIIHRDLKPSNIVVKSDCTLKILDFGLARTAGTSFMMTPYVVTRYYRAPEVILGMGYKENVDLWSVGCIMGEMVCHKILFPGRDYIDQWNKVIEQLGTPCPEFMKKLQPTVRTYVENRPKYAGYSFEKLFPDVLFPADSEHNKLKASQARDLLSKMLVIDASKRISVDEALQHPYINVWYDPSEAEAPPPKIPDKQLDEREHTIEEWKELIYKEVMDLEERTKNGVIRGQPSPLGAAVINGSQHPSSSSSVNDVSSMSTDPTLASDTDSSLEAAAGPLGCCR
T1 sequence (P68400 whole entry): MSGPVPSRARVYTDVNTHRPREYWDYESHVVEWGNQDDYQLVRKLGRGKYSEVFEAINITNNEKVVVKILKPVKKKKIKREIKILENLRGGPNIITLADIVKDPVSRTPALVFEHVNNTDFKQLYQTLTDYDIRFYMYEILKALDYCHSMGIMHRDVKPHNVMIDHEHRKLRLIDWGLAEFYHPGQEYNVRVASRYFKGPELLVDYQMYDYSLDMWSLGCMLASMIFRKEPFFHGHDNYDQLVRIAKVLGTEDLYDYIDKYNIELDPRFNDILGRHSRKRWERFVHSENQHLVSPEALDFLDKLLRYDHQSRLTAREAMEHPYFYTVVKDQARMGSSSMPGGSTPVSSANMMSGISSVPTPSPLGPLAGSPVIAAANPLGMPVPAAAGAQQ
T1 sequence (P67870 whole entry partner): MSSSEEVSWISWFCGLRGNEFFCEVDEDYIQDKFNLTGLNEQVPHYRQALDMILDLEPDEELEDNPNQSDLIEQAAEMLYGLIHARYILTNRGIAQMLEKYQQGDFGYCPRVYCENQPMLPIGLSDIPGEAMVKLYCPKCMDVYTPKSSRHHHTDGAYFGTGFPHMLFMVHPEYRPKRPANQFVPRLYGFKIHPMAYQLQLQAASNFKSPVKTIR
T5 sequence (P49841 whole entry): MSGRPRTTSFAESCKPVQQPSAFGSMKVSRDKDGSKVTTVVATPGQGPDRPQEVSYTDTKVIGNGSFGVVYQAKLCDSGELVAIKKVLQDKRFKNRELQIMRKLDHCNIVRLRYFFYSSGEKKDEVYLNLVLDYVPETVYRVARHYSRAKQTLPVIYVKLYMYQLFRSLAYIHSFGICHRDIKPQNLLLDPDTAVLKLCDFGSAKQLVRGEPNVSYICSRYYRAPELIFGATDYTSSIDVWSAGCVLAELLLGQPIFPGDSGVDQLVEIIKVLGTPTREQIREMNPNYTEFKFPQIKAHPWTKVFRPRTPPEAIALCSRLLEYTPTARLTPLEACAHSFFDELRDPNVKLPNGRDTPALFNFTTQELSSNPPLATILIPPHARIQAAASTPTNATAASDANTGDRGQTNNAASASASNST
T16 sequence (P49761 whole entry): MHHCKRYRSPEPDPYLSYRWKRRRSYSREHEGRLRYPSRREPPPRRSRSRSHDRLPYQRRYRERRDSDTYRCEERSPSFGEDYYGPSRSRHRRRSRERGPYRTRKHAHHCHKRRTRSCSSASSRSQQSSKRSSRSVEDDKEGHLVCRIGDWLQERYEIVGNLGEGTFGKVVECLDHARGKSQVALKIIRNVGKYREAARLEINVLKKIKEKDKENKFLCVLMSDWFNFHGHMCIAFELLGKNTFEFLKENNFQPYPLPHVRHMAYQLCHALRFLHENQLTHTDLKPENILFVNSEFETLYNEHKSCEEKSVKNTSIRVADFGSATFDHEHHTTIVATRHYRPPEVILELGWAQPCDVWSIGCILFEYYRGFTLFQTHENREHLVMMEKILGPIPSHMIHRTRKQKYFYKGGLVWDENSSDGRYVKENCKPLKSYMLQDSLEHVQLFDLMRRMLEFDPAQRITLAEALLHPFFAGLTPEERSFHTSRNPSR
T8 sequence (Q16512 whole entry): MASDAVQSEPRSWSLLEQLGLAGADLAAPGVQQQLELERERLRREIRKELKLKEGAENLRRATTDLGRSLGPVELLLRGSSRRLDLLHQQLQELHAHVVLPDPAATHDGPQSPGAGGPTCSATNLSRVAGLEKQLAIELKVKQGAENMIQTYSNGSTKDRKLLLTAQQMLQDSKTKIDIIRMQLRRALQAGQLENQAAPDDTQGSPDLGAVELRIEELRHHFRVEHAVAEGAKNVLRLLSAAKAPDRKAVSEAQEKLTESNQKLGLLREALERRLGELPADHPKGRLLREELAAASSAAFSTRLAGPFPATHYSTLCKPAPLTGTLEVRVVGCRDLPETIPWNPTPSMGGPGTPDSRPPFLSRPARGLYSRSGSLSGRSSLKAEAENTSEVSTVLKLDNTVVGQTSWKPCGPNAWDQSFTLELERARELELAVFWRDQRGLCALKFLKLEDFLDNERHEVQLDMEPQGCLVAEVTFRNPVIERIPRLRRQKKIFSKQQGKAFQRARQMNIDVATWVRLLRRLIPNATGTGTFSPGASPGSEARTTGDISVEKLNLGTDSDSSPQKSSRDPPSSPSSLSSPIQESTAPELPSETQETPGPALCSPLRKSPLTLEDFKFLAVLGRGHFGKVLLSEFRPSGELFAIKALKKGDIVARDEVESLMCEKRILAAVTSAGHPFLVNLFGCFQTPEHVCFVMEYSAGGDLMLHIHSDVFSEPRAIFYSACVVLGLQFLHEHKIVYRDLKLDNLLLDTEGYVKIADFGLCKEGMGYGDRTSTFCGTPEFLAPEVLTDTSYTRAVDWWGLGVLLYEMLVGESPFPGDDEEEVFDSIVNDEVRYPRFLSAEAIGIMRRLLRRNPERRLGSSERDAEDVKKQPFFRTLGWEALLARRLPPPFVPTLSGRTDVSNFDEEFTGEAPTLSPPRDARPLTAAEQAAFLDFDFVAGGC
T9 sequence (Q9Y6M4 whole entry): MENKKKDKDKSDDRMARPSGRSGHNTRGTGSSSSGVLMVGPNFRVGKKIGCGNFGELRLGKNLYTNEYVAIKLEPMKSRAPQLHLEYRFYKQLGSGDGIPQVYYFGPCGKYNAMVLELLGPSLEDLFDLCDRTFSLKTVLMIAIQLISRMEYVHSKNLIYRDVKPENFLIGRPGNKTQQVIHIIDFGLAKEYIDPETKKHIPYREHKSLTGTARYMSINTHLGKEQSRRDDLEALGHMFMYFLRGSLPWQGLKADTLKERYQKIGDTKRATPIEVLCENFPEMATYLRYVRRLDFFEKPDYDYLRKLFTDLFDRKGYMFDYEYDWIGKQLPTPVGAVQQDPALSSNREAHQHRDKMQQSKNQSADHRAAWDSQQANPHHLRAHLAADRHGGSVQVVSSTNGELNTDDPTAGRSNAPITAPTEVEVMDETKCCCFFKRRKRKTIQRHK
T6 sequence (Q00535 whole entry): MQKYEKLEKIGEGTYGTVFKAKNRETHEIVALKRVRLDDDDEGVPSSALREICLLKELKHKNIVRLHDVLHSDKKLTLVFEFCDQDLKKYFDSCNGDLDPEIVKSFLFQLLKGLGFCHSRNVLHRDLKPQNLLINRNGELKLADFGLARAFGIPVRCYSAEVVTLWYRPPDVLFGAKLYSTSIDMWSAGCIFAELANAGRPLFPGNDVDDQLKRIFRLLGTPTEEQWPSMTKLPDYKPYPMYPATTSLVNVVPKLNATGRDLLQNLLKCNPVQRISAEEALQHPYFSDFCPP
T6 sequence (Q15078 99-307 partner limits assumed): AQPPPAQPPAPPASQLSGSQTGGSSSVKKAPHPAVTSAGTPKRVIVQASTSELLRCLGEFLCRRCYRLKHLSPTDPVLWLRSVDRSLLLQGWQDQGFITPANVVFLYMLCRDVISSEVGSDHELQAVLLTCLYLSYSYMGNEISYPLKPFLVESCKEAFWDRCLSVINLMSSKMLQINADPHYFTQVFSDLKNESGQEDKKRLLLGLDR
T10 sequence (P31751 whole entry): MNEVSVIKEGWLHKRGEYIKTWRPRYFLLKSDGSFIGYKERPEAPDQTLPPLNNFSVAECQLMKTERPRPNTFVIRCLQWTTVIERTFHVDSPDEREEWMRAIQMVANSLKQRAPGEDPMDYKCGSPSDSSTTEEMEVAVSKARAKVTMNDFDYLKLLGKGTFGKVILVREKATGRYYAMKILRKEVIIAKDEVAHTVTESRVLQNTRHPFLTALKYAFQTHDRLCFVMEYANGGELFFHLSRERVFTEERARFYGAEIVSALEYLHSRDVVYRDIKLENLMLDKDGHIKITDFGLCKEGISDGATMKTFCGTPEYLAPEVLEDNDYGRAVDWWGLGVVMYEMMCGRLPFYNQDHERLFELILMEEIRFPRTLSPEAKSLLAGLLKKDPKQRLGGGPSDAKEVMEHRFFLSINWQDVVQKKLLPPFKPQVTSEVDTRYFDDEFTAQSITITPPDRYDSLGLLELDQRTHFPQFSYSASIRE

Row | SMILES | Percentage inhibition of kinase enzyme activity (CK2α1/β) | Percentage inhibition of kinase enzyme activity (Haspin) | Percentage inhibition of kinase enzyme activity (MARK2) | Percentage inhibition of kinase enzyme activity (HIPK1) | Percentage inhibition of kinase enzyme activity (GSK3β) | Percentage inhibition of kinase enzyme activity (CDK5/p25) | Percentage inhibition of kinase enzyme activity (SPHK1) | Percentage inhibition of kinase enzyme activity (PKN1) | Percentage inhibition of kinase enzyme activity (CK1γ3) | Percentage inhibition of kinase enzyme activity (AKT2) | Percentage inhibition of kinase enzyme activity (MAPKAPK3) | Percentage inhibition of kinase enzyme activity (TXK) | Percentage inhibition of kinase enzyme activity (SGK3) | Percentage inhibition of kinase enzyme activity (CK1δ) | Percentage inhibition of kinase enzyme activity (JNK1) | Percentage inhibition of kinase enzyme activity (CLK3) | Percentage inhibition of kinase enzyme activity (CSK) | Percentage inhibition of kinase enzyme activity (WNK2) | inhibition at 1 µM (CSK; read-out: Inhibition of CSK)
1 | CC#CC(=O)N1CCC[C@H]1c1nc(-c2ccc(C(=O)Nc3ccccn3)cc2)c2c(N)nccn12 [acalabrutinib] | 5.34% | 5.31% | -9.24% | -14.56% | -2.39% | -19.05% | -3.15% | 11.29% | -14.72% | -2.69% | -11.15% | 67.66% | -11.85% | 2.76% | -0.88% | -14.91% | 6.97% | 0.79% | –
2 | C=CC(=O)N1CCC([C@@H]2CCNc3c(C(N)=O)c(-c4ccc(Oc5ccccc5)cc4)nn32)CC1 [zanubrutinib] | – | – | – | – | – | – | – | – | – | – | -12.22% | 89.43% | – | – | – | – | – | – | –
3 | O=C(c1ccc(Oc2ccccc2)cc1Cl)c1c[nH]c2ncnc(N[C@@H]3CC[C@@H](CO)OC3)c12 [nemtabrutinib] | -2.75% | -1.40% | -4.16% | 2.16% | -7.92% | -18.80% | -5.57% | 5.57% | 3.75% | 4.40% | -15.88% | 97.01% | -3.28% | 25.76% | -3.89% | -2.19% | 98.66% | 47.36% | –
4 | COc1ccc(F)cc1C(=O)NCc1ccc(-c2nn([C@@H](C)C(F)(F)F)c(N)c2C(N)=O)cc1 [pirtobrutinib] | -1.74% | -3.18% | 2.21% | 2.97% | -23.01% | 4.92% | -10.15% | 15.81% | -0.93% | -4.63% | -18.63% | 43.03% | -2.68% | 6.20% | -0.29% | 14.87% | 79.14% | 11.58% | > 75%
5 | C=CC(=O)N1CCC[C@@H](n2nc(-c3ccc(Oc4ccccc4)cc3)c3c(N)ncnc32)C1 [ibrutinib] | -11.11% | 2.53% | 2.67% | 4.26% | -4.00% | -5.18% | -3.38% | 8.58% | 3.83% | -3.12% | -6.50% | 98.38% | 0.58% | 7.46% | -2.33% | – | – | 5.67% | –
